The test system of assay [1] is A549 cells. In words: cells. It is filed as cell-based. To be noted: Homo sapiens, A549, 72 h, read-out: IC50 A549.
Assay [2] deals with H1975 cells. In words: AO staining analysis. It is filed as cell-based. The conditions noted are these: T001-10027877 0.5, 1, 2 µM, AZD9291 1 µM.

The term pIC50 denotes −log10 of the IC50, conventionally taken in molar units.

pIC50: −log10 of the molar value.

As for `C=CC(=O)Nc1cc(Nc2nccc(-c3cn(C)c4ccccc34)n2)c(OC)cc1N(C)CCN(C)C` [AZD9291], the pIC50 in assay [1] was 5.31. Also, the “cell morphology / induction of apoptosis (AO staining)” value in assay [2] is given as “induced significant shrinkage of the cell membrane”.

These data come from paper PMC11351453 (BMC Chemistry, 2024).
